Experimental data: ChEMBL document CHEMBL6120962, “New Mitochondria-Targeted Fisetin Derivative Compromises Mitophagy and Limits Survival of Drug-Induced Senescent Breast Cancer Cells” (J Med Chem, 2024)
The source made the active and inactive calls. The calls are words filed in the database; no cut-off is given here.

Assays:
HCC1500 [1] = experiment: Induction of senescence in human HCC1500 cells assessed as […] in beta-galactosidase activity at 5 uM incubated for 24 hrs by immunostaining based imaging cytometric analysis; format: functional, cell-based
ZR-75-30 [2] = experiment: Anticancer activity against ER-positive human ZR-75-30 cells assessed as effect on metabolic activity upto 10 uM incubated for 24 hrs by MTT assay; format: functional, cell-based
Mitochondrial membrane [3] = experiment: Induction of mitochondrial membrane potential depolarization in tamoxifen-induced senescent human CAMA-1 cells assessed as increase in depolarized dead cell level at 1 to 5 uM incubated for 24 hrs by 7-AAD staining based flow cytometric analysis; format: cell membranes; details: dose 1-5 µM
HCC1500 [4] = experiment: Anticancer activity against ER-positive human HCC1500 cells assessed as effect on metabolic activity upto 10 uM incubated for 24 hrs by MTT assay; format: functional, cell-based
HCC1500 [5] = experiment: Induction of apoptosis in tamoxifen-induced senescent human HCC1500 cells assessed as decrease in HSP90 level incubated for 24 hrs by immunostaining based imaging cytometric analysis; format: functional, cell-based
MCF-10F [6] = experiment: Induction of apoptosis in tamoxifen-induced senescent human MCF-10F cells assessed as assessed as phosphatidylserine externalization at 1 to 5 uM incubated for 24 hrs by Annexin V-FITC staining based flow cytometric analysis; format: functional, cell-based; details: dose 1-5 µM
CAMA-1 [7] = experiment: Induction of senescence in human CAMA-1 cells assessed as increase in IL-8 level at 5 uM incubated for 24 hrs by immunostaining based imaging cytometric analysis; format: functional, cell-based
ZR-75-30 [8] = experiment: Induction of senescence in human ZR-75-30 cells assessed as […] in beta-galactosidase activity at 5 uM incubated for 24 hrs by immunostaining based imaging cytometric analysis; format: functional, cell-based
CAMA-1 [9] = experiment: Anticancer activity against ER-positive human CAMA-1 cells assessed as effect on metabolic activity upto 10 uM incubated for 24 hrs by MTT assay; format: functional, cell-based
HCC1428 [10] = experiment: Induction of senescence in human HCC1428 cells assessed as […] in beta-galactosidase activity at 5 uM incubated for 24 hrs by immunostaining based imaging cytometric analysis; format: functional, cell-based
HCC1428 [11] = experiment: Induction of apoptosis in human HCC1428 cells assessed as phosphatidylserine externalization at 1 to 5 uM incubated for 24 hrs by Annexin V-FITC staining based flow cytometric analysis; format: functional, cell-based; details: dose 1-5 µM
MCF-10F [12] = experiment: Induction of apoptosis in human MCF-10F cells assessed as assessed as phosphatidylserine externalization at 1 to 5 uM incubated for 24 hrs by Annexin V-FITC staining based flow cytometric analysis; format: functional, cell-based; details: dose 1-5 µM
HCC1428 [13] = experiment: Induction of apoptosis in tamoxifen-induced senescent human HCC1428 cells assessed as decrease in AKT level at 1 to 5 uM incubated for 24 hrs by Western blotting analysis; format: functional, cell-based; details: dose 1-5 µM
Mitochondrial membrane [14] = experiment: Induction of mitochondrial membrane potential depolarization in human CAMA-1 cells at 1 uM incubated for 24 hrs by 7-AAD staining based flow cytometric analysis; format: cell membranes
Mitochondrial membrane [15] = experiment: Induction of mitochondrial membrane potential depolarization in tamoxifen-induced senescent human HCC1500 cells assessed as increase in depolarized dead cell level at 1 to 5 uM incubated for 24 hrs by 7-AAD staining based flow cytometric analysis; format: cell membranes; details: dose 1-5 µM
MCF-10F [16] = experiment: Induction of mitochondrial dysfunction in human MCF-10F cells assessed as decrease in maximal respiration at 5 uM incubated for 6 hrs by real time analysis; format: functional, cell-based
CAMA-1 [17] = experiment: Induction of oxidative stress in tamoxifen-induced senescent human CAMA-1 cells assessed as increase in mitochondrial superoxide production at 1 to 5 uM incubated for 24 hrs by MitoSOX red superoxide indicator based fluorescence analysis; format: functional, cell-based; details: dose 1-5 µM
ZR-75-30 [18] = experiment: Induction of apoptosis in human ZR-75-30 cells assessed as decrease in Bcl2 level at 1 to 5 uM incubated for 24 hrs by Western blot analysis; format: functional, cell-based; details: dose 1-5 µM
HCC1428 [19] = experiment: Induction of apoptosis in tamoxifen-induced senescent human HCC1428 cells assessed as decrease in HSP90 level incubated for 24 hrs by immunostaining based imaging cytometric analysis; format: functional, cell-based
MCF-10F [20] = experiment: Induction of mitochondrial dysfunction in human MCF-10F cells assessed as decrease in spare respiratory capacity at 5 uM incubated for 6 hrs by real time analysis; format: functional, cell-based
HCC1428 [21] = experiment: Induction of autophagy in tamoxifen-induced senescent human HCC1428 cells assessed as increase in VPS34 level at 1 to 5 uM by immunostaining based imaging cytometric analysis; format: functional, cell-based; details: dose 1-5 µM
HCC1428 [22] = experiment: Induction of apoptosis in tamoxifen-induced senescent human HCC1428 cells assessed as decrease in Bcl2 level at 5 uM incubated for 24 hrs by Western blot analysis; format: functional, cell-based
MCF-10F [23] = experiment: Induction of mitochondrial dysfunction in tamoxifen-induced senescent human MCF-10F cells assessed as increase in proton leak at 5 uM incubated for 6 hrs by real-time analysis; format: functional, cell-based
ZR-75-30 [24] = experiment: Induction of oxidative stress in tamoxifen-induced senescent human ZR-75-30 cells assessed as increase in mitochondrial SOD2 level at 1 to 5 uM incubated for 24 hrs by MitoSOX red superoxide indicator based fluorescence analysis; format: functional, cell-based; details: dose 1-5 µM
[25] = biological target: T1, Mixed lineage kinase domain-like protein (Homo sapiens) (UniProt Q8NB16); experiment: Induction of MLKL phosphorylation in human HCC1428 cells at 1 to 5 uM incubated for 24 hrs by Western blot analysis; format: cell-based; details: dose 1-5 µM
T1 sequence (whole entry): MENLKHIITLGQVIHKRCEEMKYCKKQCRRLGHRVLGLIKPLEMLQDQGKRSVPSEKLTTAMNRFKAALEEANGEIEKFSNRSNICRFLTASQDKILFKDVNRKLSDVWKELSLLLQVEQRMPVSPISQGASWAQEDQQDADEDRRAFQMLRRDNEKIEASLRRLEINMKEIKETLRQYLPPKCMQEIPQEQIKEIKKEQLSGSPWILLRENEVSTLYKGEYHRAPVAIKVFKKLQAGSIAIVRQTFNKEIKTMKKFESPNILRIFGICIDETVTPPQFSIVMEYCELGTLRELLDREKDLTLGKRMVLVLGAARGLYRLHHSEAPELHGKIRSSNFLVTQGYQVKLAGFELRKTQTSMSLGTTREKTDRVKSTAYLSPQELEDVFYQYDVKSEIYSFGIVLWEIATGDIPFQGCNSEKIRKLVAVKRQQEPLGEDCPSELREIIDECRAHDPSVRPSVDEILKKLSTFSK

CAMA-1 [26] = experiment: Induction of apoptosis in tamoxifen-induced senescent human CAMA-1 cells assessed as decrease in HSP90 level incubated for 24 hrs by immunostaining based imaging cytometric analysis; format: functional, cell-based
HCC1428 [27] = experiment: Anticancer activity against ER-positive human HCC1428 cells assessed as effect on metabolic activity upto 10 uM incubated for 24 hrs by MTT assay; format: functional, cell-based
MCF-10F [28] = experiment: Induction of apoptosis in human MCF-10F cells assessed as decrease in Bcl2 level at 1 to 5 uM incubated for 24 hrs by Western blot analysis; format: functional, cell-based; details: dose 1-5 µM
Mitochondrial membrane [29] = experiment: Induction of mitochondrial membrane potential depolarization in human ZR-75-30 cells at 1 uM incubated for 24 hrs by 7-AAD staining based flow cytometric analysis; format: cell membranes

Activity (Mitochondrial membrane [3]): Active
Activity (Mitochondrial membrane [14]): Active
Activity (Mitochondrial membrane [15]): Active
Activity [25]: inactive
Activity (Mitochondrial membrane [29]): Active
SMILES: CC(=O)Oc1ccc2c(=O)c(OCCCC[P+](c3ccccc3)(c3ccccc3)c3ccccc3)c(-c3ccc4c(c3)OC(c3ccccc3)(c3ccccc3)O4)oc2c1.[I-]
Activity (HCC1500 [1]): Active
Activity (ZR-75-30 [2]): Active
Activity (HCC1500 [4]): Active
Activity (HCC1500 [5]): Active
Activity (MCF-10F [6]): Active; Slight Effect Observed
Activity (CAMA-1 [7]): inactive
Activity (ZR-75-30 [8]): Active
Activity (CAMA-1 [9]): Active
Activity (HCC1428 [10]): Active; Most Pronounced Effect Observed
Activity (HCC1428 [11]): Active
Activity (MCF-10F [12]): inactive
Activity (HCC1428 [13]): Active
Activity (MCF-10F [16]): inactive
Activity (CAMA-1 [17]): Active
Activity (ZR-75-30 [18]): Active
Activity (HCC1428 [19]): Active
Activity (MCF-10F [20]): inactive
Activity (HCC1428 [21]): Active
Activity (HCC1428 [22]): Active
Activity (MCF-10F [23]): inactive
Activity (ZR-75-30 [24]): Active
Activity (CAMA-1 [26]): Active
Activity (HCC1428 [27]): Active
Activity (MCF-10F [28]): inactive
